Laboratory results from US20110064833A1, “SYNERGISTIC HERBAL COMPOSITION AND PROCESS OF PREPARATION THEREOF” (priority 2007, published 2011).

System: streptozotocin diabetic rats
Test: In-vivo efficacy screening in streptozotocin diabetic Sprague Dawley rats, 35 days oral gavage
Description: The number of animals per dose group is five and is kept for examination and acclimatization for a week period at the start of the study. The total number of dose groups is six along with vehicle control. The different groups are G1-Vehicle control, G2-Diabetic control, G-3 Diabetic animals treated with Pioglitazone (Standard anti-diabetic drug). […] Blood is collection under CO2 anesthesia by retro orbital (ROP) plexus method and FBG analysis. Rats are fed with 5% glucose water for two days before STZ injection and are fasted for 12 hours before administering streptozotocin. The rats are injected intra-peritoneal with 45 mg/kg-body weight of streptozotocin in a citrate buffer ph: 4.5 and allowed for week recovery. Rats are fasted for 12 hours after 7th day of STZ injection and blood collected in heparin as the anti-coagulant, under CO2 anesthesia and analyzed for FBG. Rats that have the range of FBG beyond 250 mg/dl and above are considered for the study.
Selection, randomization and grouping of the animals into different treatment groups with the FBG range of 250 mg/dl is undertaken as above. […] The dosage volume administered to individual rat was adjusted according to its most recently recorded body weights. […] All signs of ill health, together with any behavioral changes or reaction to treatment are recorded for individual animals. […]

Row | SMILES | increase in fasting blood glucose from baseline at the end of 35 days (pioglitazone 20 mg/kg-body weight) | increase in fasting blood glucose from baseline at the end of 35 days (glebenclamide, dose not stated)
1 | CCc1ccc(CCOc2ccc(CC3SC(=O)NC3=O)cc2)nc1 (centres unmarked) [pioglitazone] | about 98% | –
2 | COc1ccc(Cl)cc1C(=O)NCCc1ccc(S(=O)(=O)NC(=O)NC2CCCCC2)cc1 [glebenclamide] | – | about 110%
